Source: US8940769B2, “Biaryl benzoimidazole derivatives and pharmaceutical composition comprising the same” (Daewoong Pharmaceutical Co., Ltd., priority 2006, dated 2015)

Target: T1, human vanilloid receptor VR-1 (hVR1) (Homo sapiens, UniProt Q8NER1)
T1 construct: expressed in transfected cells; host or cells: HEK293 Tet-on cells (hVR1-HEK293), expression induced with doxycycline
Experiment: Calcium influx test of vanilloid receptor (capsaicin-induced, Fluo-3/AM, hVR1-HEK293 cells)
Format: cell-based
Details: for inhibition at 0.2 µM / Inhibitory effect (%) on calcium influx: single concentration of compound 200 nM, 1 μM capsaicin; for inhibition at 0.2 µM: read-out: Inhibitory effect (%) on calcium influx; for IC50: calcium influx induced by 1 μM capsaicin, read-out: Inhibitory effect IC50 (nM) on calcium influx
Experimental: In order to measure an activity of the biaryl benzoimidazole derivative of the invention as an antagonist, a calcium influx test was performed.
An hVR1-HEK293 cell line is a cell line, in which a Human Embryonic Kidney (HEK) 293 Tet-on cell is transformed with a human vanilloid-1 gene (pTRE2hyg-hVR1, 7.8 kb). The cell line can regulate a VR-1 expression, depending on the administration of a tetracycline analogue, doxycycline. At two days before the calcium influx test, the cell line was cultured in media containing doxycycline to induce the VR-1 expression, and then used. First, the hVR1-HEK293 cells were cultured in T75 flasks to have a density of about 80%, and then detached from the bottom of the flasks by using trypsin. The detached cells were centrifuged and collected. Then, the cells were suspended in media containing 1 μg/mL doxycycline, and diluted to have a concentration of 2×10^5 to 4×10^5 cells/mL. 100 μL of the suspended cells were added to each well of 96-well black plate, cultured at 37° C. and 5% CO2 cell incubator for two days, and then used in the calcium influx test.
The compound was dissolved in dimethyl sulfoxide (DMSO), and then used for the calcium influx test.
In order to measure the calcium influx […], the cells were cultured in a solution containing Fluo-3/AM, which is a calcium indicator, at 37° C. for 90 minutes, so as to be permeated by a fluorescent dye. […] 193 μL D-PBS were added to each well, and then the compound was added thereto in various concentrations. To measure an activity as an antagonist, the cells were treated with 1 μM capsaicin to stimulate the calcium influx. The inhibitory effect of the compound when calcium influx was induced by 1 μM capsaicin was measured depending on its concentration using a fluorescence spectrometer, and the obtained data were substituted into a hill equation to analyze the values.
The inhibitory effect on calcium influx was measured with a single concentration of the compounds of the invention (200 nM), and the result thereof are shown in Table 2.

T1 sequence (Q8NER1 whole entry): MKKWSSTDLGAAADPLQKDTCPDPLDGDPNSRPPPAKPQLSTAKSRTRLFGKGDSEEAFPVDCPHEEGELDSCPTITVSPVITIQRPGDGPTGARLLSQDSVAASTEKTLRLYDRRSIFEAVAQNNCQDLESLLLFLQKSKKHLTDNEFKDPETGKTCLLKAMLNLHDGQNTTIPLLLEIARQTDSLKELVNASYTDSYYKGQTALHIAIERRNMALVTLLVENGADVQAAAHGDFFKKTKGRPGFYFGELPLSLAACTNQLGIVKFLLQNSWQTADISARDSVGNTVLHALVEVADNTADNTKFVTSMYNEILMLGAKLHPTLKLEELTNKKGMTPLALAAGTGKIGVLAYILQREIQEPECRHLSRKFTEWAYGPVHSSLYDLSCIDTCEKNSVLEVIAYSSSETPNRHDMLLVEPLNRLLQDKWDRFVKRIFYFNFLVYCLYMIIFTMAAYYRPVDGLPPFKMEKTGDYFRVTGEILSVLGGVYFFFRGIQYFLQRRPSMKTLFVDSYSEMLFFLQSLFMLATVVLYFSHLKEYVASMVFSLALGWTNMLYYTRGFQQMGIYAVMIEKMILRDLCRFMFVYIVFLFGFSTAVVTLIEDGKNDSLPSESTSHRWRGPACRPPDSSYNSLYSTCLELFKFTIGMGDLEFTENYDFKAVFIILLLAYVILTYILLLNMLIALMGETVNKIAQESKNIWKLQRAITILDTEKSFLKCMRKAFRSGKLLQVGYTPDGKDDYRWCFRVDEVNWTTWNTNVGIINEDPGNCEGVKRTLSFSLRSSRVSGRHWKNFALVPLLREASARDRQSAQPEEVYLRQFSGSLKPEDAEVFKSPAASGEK

| SMILES | inhibition at 0.2 µM | IC50 | Inhibitory effect (%) on calcium influx |
| --- | --- | --- | --- |
| OCc1cnc(-c2ccc(-c3nc4ccc(N5CCOCC5)cc4[nH]3)cc2)c(Cl)c1 [Compound 26, {5-chloro-6-[4-(6-morpholin-4-yl-1H-benzoimidazol-2-yl)-phenyl]-pyridin-3-yl}-methanol] | 5% | – | – |
| CN1CCN(c2ccc3nc(-c4ccc(-c5ncc(CO)cc5Cl)cc4)[nH]c3c2)CC1 [Compound 27, (5-chloro-6-{4-[6-(4-methyl-piperazin-1-yl)-1H-benzoimidazol-2-yl]-phenyl}-pyridin-3-yl)-methanol] | 4% | – | – |
| OCc1cnc(-c2ccc(-c3nc4ccc(C(F)(F)F)cc4[nH]3)cc2)c(Cl)c1 [Compound 28, {5-chloro-6-[4-(6-trifluoromethyl-1H-benzoimidazol-2-yl)-phenyl]-pyridin-3-yl}-methanol] | 2.8% | 181 nM | – |
| OCc1cnc(-c2ccc(-c3nc4ccc(Br)cc4[nH]3)cc2)c(Cl)c1 [Compound 30, {6-[4-(6-bromo-1H-benzoimidazol-2-yl)-phenyl]-5-chloro-pyridin-3-yl}-methanol] | 27.8% | 171 nM | – |
| OCc1cnc(-c2ccc(-c3nc4ncc(Br)cc4[nH]3)cc2)c(Cl)c1 [Compound 31, {6-[4-(6-bromo-1H-imidazo[4,5-b]pyridin-2-yl)-phenyl]-5-chloro-pyridin-3-yl}-methanol] | 1.7% | – | – |
| OCc1cnc(-c2ccc(-c3nc4c(Br)cc(C(F)(F)F)cc4[nH]3)cc2)c(Cl)c1 [Compound 32, {6-[4-(4-bromo-6-trifluoromethyl-1H-benzoimidazol-2-yl)-phenyl]-5-chloro-pyridin-3-yl}-methanol] | 6% | – | – |
| OCc1cnc(-c2ccc(-c3nc4c(Br)cc(Br)cc4[nH]3)cc2)c(Cl)c1 [Compound 33, {5-chloro-6-[4-(4,6-dibromo-1H-benzoimidazol-2-yl)-phenyl]-pyridin-3-yl}-methanol] | 4.7% | – | – |
| FC(F)(F)c1ccc2nc(-c3ccc(-c4ncc(CBr)cc4Cl)cc3)[nH]c2c1 [Compound 34, 2-[4-(5-bromomethyl-3-chloro-pyridin-2-yl)-phenyl]-6-trifluoromethyl-1H-benzoimidazole] | 13% | – | – |
| CC(C)(C)c1ccc2nc(-c3ccc(-c4ncc(CBr)cc4Cl)cc3)[nH]c2c1 [Compound 35, 2-[4-(5-bromomethyl-3-chloro-pyridin-2-yl)-phenyl]-6-tert-butyl-1H-benzoimidazole] | 59.6% | – | – |
| Clc1cc(CBr)cnc1-c1ccc(-c2nc3ccc(Br)cc3[nH]2)cc1 [Compound 36, 6-bromo-2-[4-(5-bromomethyl-3-chloro-pyridin-2-yl)-phenyl]-1H-benzoimidazole] | 9.6% | – | – |
| C=Cc1cnc(-c2ccc(-c3nc4ccc(C(F)(F)F)cc4[nH]3)cc2)c(Cl)c1 [Compound 37, 2-[4-(3-chloro-5-vinyl-pyridin-2-yl)-phenyl]-6-trifluoromethyl-1H-benzoimidazole] | 5.3% | – | – |
| C=Cc1cnc(-c2ccc(-c3nc4ccc(C(C)(C)C)cc4[nH]3)cc2)c(Cl)c1 [Compound 38, 6-tert-butyl-2-[4-(3-chloro-5-vinyl-pyridin-2-yl)-phenyl]-1H-benzoimidazole] | 11.7% | – | – |
| C=Cc1cnc(-c2ccc(-c3nc4ccc(Br)cc4[nH]3)cc2)c(Cl)c1 [Compound 39, 6-bromo-2-[4-(3-chloro-5-vinyl-pyridin-2-yl)-phenyl]-1H-benzoimidazole] | 3.1% | – | – |
| C=Cc1cnc(-c2ccc(-c3nc4c(Br)cc(C(F)(F)F)cc4[nH]3)cc2)c(Cl)c1 [Compound 41, 4-bromo-2-[4-(3-chloro-5-vinyl-pyridin-2-yl)-phenyl]-6-trifluoromethyl-1H-benzoimidazole] | -2.1% | – | – |
| C=Cc1cnc(-c2ccc(-c3nc4ccc(Cl)cc4[nH]3)cc2)c(Cl)c1 [Compound 42, 6-chloro-2-[4-(3-chloro-5-vinyl-pyridin-2-yl)-phenyl]-1H-benzoimidazole] | 0.9% | – | – |
| O=C(O)c1cnc(-c2ccc(-c3nc4ccc(C(F)(F)F)cc4[nH]3)cc2)c(Cl)c1 [Compound 43, 5-chloro-6-[4-(6-trifluoromethyl-1H-benzoimidazol-2-yl)-phenyl]-nicotinic acid] | -3.1% | – | – |

| SMILES | inhibition at 0.2 µM | IC50 | Inhibitory effect (%) on calcium influx |
| --- | --- | --- | --- |
| CC(C)(C)c1ccc2nc(-c3ccc(-c4ncc(C(=O)O)cc4Cl)cc3)[nH]c2c1 [Compound 44, 6-[4-(6-tert-butyl-1H-benzoimidazol-2-yl)-phenyl]-5-chloro-nicotinic acid] | -1% | – | – |
| O=C(O)c1cnc(-c2ccc(-c3nc4ccc(Br)cc4[nH]3)cc2)c(Cl)c1 [Compound 45, 6-[4-(6-bromo-1H-benzoimidazol-2-yl)-phenyl]-5-chloro-nicotinic acid] | 3.3% | – | – |
| O=C(O)c1cnc(-c2ccc(-c3nc4ncc(Br)cc4[nH]3)cc2)c(Cl)c1 [Compound 46, 6-[4-(6-bromo-1H-imidazo[4,5-b]pyridin-2-yl)-phenyl]-5-chloro-nicotinic acid] | 7.2% | – | – |
| O=C(O)c1cnc(-c2ccc(-c3nc4c(Br)cc(C(F)(F)F)cc4[nH]3)cc2)c(Cl)c1 [Compound 47, 6-[4-(4-bromo-6-trifluoromethyl-1H-benzoimidazol-2-yl)-phenyl]-5-chloro-nicotinic acid] | 5.7% | – | – |
| COC(=O)c1cnc(-c2ccc(-c3nc4ncc(Br)cc4[nH]3)cc2)c(Cl)c1 [Compound 51, 6-[4-(6-bromo-1H-imidazo[4,5-b]pyridin-2-yl)-phenyl]-5-chloro-nicotinic acid methyl ester] | 1.1% | – | – |
| COC(=O)c1cnc(-c2ccc(-c3nc4c(Br)cc(C(F)(F)F)cc4[nH]3)cc2)c(Cl)c1 [Compound 52, 6-[4-(4-bromo-6-trifluoromethyl-1H-benzoimidazol-2-yl)-phenyl]-5-chloro-nicotinic acid methyl ester] | 20% | – | – |
| CC(=O)OCc1cnc(-c2ccc(-c3nc4ccc(C(C)(C)C)cc4[nH]3)cc2)c(Cl)c1 [Compound 54, acetic acid 6-[4-(6-tert-butyl-1H-benzoimidazol-2-yl)-phenyl]-5-chloro-pyridin-3-yl methyl ester] | 14.6% | 319 nM | – |
| CC(=O)OCc1cnc(-c2ccc(-c3nc4ccc(Br)cc4[nH]3)cc2)c(Cl)c1 [Compound 55, acetic acid 6-[4-(6-bromo-1H-benzoimidazol-2-yl)-phenyl]-5-chloro-pyridin-3-yl methyl ester] | – | – | 0.9% |
| CC(=O)OCc1cnc(-c2ccc(-c3nc4ncc(Br)cc4[nH]3)cc2)c(Cl)c1 [Compound 56, acetic acid 6-[4-(6-bromo-1H-imidazo[4,5-b]pyridin-2-yl)-phenyl]-5-chloro-pyridin-3-yl methyl ester] | – | – | 6.5% |
| CC(=O)OCc1cnc(-c2ccc(-c3nc4c(Br)cc(C(F)(F)F)cc4[nH]3)cc2)c(Cl)c1 [Compound 57, acetic acid 6-[4-(4-bromo-6-trifluoromethyl-1H-benzoimidazol-2-yl)-phenyl]-5-chloro-pyridin-3-yl methyl ester] | – | – | 16.9% |
| O=Cc1cnc(-c2ccc(-c3nc4ccc(C(F)(F)F)cc4[nH]3)cc2)c(Cl)c1 [Compound 58, 5-chloro-6-[4-(6-trifluoromethyl-1H-benzoimidazol-2-yl)-phenyl]-pyridine-3-carbaldehyde] | 39.1% | 94.5 nM | – |
| CC(C)(C)c1ccc2nc(-c3ccc(-c4ncc(C=O)cc4Cl)cc3)[nH]c2c1 [Compound 59, 6-[4-(6-tert-butyl-1H-benzoimidazol-2-yl)-phenyl]-5-chloro-pyridine-3-carbaldehyde] | 82.5% | 29.5 nM | – |
| CCNC(=O)c1cnc(-c2ccc(-c3nc4ccc(C(F)(F)F)cc4[nH]3)cc2)c(Cl)c1 [Compound 61, 5-chloro-N-ethyl-6-[4-(6-trifluoromethyl-1H-benzoimidazol-2-yl)-phenyl]-nicotinamide] | 23.4% | – | – |
| CCNC(=O)c1cnc(-c2ccc(-c3nc4ccc(C(C)(C)C)cc4[nH]3)cc2)c(Cl)c1 [Compound 62, 6-[4-(6-tert-butyl-1H-benzoimidazol-2-yl)-phenyl]-5-chloro-N-ethyl-nicotinamide] | 54.3% | 126 nM | – |
| CCNC(=O)c1cnc(-c2ccc(-c3nc4ccc(Br)cc4[nH]3)cc2)c(Cl)c1 [Compound 63, 6-[4-(6-bromo-1H-benzoimidazol-2-yl)-phenyl]-5-chloro-N-ethyl-nicotinamide] | 38.3% | 397 nM | – |
| CCNC(=O)c1cnc(-c2ccc(-c3nc4ncc(Br)cc4[nH]3)cc2)c(Cl)c1 [Compound 64, 6-[4-(6-bromo-1H-imidazo[4,5-b]pyridin-2-yl)-phenyl]-5-chloro-N-ethyl-nicotinamide] | 11.1% | – | – |
